Assay results published in paper PMC9829398 (Plant Biotechnology Journal, 2022).
“Also recorded” adds a separate entry of the source.

Tests used:
[1] = test system: tobacco roots; assay: RNA-seq of tobacco roots (DEGs, GO and KEGG classification and enrichment); type: in vivo
[2] = test system: ANJEA‐CD; assay: ANJEA-CD kinase activity (autophosphorylation); type: biochemical, Arabidopsis thaliana; details: 5 μM
[3] = test system: Arabidopsis Col‐0 and fer‐4 seedlings; assay: Growth of Arabidopsis seedlings (root length, shoot fresh weight); details: 5 μM for 3 days, vs ddH2O (mock) and lapatinib
[4] = test system: Ralstonia solanacearum; type: in vivo, tobacco; details: roots pretreated twice with 3 mL of 5 μM
[5] = KEGG ko00950 Isoquinoline alkaloid biosynthesis
[6] = KEGG ko00960 Tropane, piperidine and pyridine alkaloid biosynthesis
[7] = KEGG ko00980 Metabolism of xenobiotics by cytochrome P450
[8] = KEGG ko00982 Drug metabolism - cytochrome P450
[9] = KEGG ko01040 Biosynthesis of unsaturated fatty acids
[10] = KEGG ko03320 PPAR signaling pathway
[11] = KEGG ko04010 MAPK signaling pathway
[12] = KEGG ko04011 MAPK signaling pathway - yeast
[13] = KEGG ko04020 Calcium signaling pathway
[14] = KEGG ko04022 cGMP-PKG signaling pathway
[15] = KEGG ko04075 Plant hormone signal transduction
[16] = KEGG ko04140 Regulation of autophagy
[17] = KEGG ko04211 Longevity regulating pathway
[18] = KEGG ko04212 Longevity regulating pathway - worm
[19] = KEGG ko04370 VEGF signaling pathway
[20] = KEGG ko04380 Osteoclast differentiation
[21] = KEGG ko04614 Renin-angiotensin system
[22] = KEGG ko04626 Plant-pathogen interaction
[23] = KEGG ko04650 Natural killer cell mediated cytotoxicity
[24] = KEGG ko04660 T cell receptor signaling pathway
[25] = KEGG ko04662 B cell receptor signaling pathway
[26] = KEGG ko04712 Circadian rhythm - plant
[27] = KEGG ko04720 Long-term potentiation
[28] = KEGG ko04723 Retrograde endocannabinoid signaling
[29] = KEGG ko04724 Glutamatergic synapse
[30] = KEGG ko04810 Regulation of actin cytoskeleton
[31] = KEGG ko04920 Adipocytokine signaling pathway
[32] = KEGG ko04921 Oxytocin signaling pathway
[33] = KEGG ko04922 Glucagon signaling pathway
[34] = KEGG ko04974 Protein digestion and absorption
[35] = KEGG ko04975 Fat digestion and absorption
[36] = tobacco roots, 5 μM irrigated twice, coregulated genes, vs DMSO

O=C(O)c1cc(N(Cc2ccccc2O)Cc2cc(O)ccc2O)ccc1O [Lavendustin A]
Enrichment_score [1, 5]: 2.794 | ListHits [1, 5]: 4 | Enrichment_score [1, 6]: 4.058 | ListHits [1, 6]: 6 | Enrichment_score [1, 7]: 2.166 | ListHits [1, 7]: 6 | Enrichment_score [1, 8]: 2.749 | ListHits [1, 8]: 8 | Enrichment_score [1, 9]: 1.121 | ListHits [1, 9]: 2 | Enrichment_score ([1]; KEGG ko02010 ABC transporters): 2.282 | ListHits ([1]; KEGG ko02010 ABC transporters): 3 | Enrichment_score [1, 10]: 2.72 | ListHits [1, 10]: 3 | Enrichment_score [1, 11]: 1.195 | ListHits [1, 11]: 3 | Enrichment_score [1, 12]: 1.3634 | ListHits [1, 12]: 4 | Enrichment_score [1, 13]: 1.535 | ListHits [1, 13]: 4 | Enrichment_score [1, 14]: 1.209 | ListHits [1, 14]: 4 | Enrichment_score [1, 15]: 1.797 | ListHits [1, 15]: 28 | Enrichment_score [1, 16]: 1.598 | ListHits [1, 16]: 3 | Enrichment_score ([1]; KEGG ko04146 Peroxisome): 1.462 | ListHits ([1]; KEGG ko04146 Peroxisome): 7 | Enrichment_score [1, 17]: 1.677 | ListHits [1, 17]: 5 | Enrichment_score [1, 18]: 1.175 | ListHits [1, 18]: 4 | Enrichment_score ([1]; KEGG ko04360 Axon guidance): 2.905 | ListHits ([1]; KEGG ko04360 Axon guidance): 6 | Enrichment_score [1, 19]: 2.242 | ListHits [1, 19]: 3 | Enrichment_score [1, 20]: 2.242 | ListHits [1, 20]: 3 | Enrichment_score [1, 21]: 9.13 | ListHits [1, 21]: 3 | Enrichment_score [1, 22]: 1.285 | ListHits [1, 22]: 13 | Enrichment_score [1, 23]: 2.412 | ListHits [1, 23]: 3 | Enrichment_score [1, 24]: 2.905 | ListHits [1, 24]: 3 | Enrichment_score [1, 25]: 2.204 | ListHits [1, 25]: 3 | Enrichment_score [1, 26]: 1.266 | ListHits [1, 26]: 3 | Enrichment_score [1, 27]: 1.66 | ListHits [1, 27]: 3 | Enrichment_score [1, 28]: 1.014 | ListHits [1, 28]: 1 | Enrichment_score [1, 29]: 1.982 | ListHits [1, 29]: 4 | Enrichment_score ([1]; KEGG ko04727 GABAergic synapse): 1.8 | ListHits ([1]; KEGG ko04727 GABAergic synapse): 3 | Enrichment_score [1, 30]: 1.244 | ListHits [1, 30]: 4 | Enrichment_score [1, 31]: 3.4085 | ListHits [1, 31]: 6 | Enrichment_score [1, 32]: 1.746 | ListHits [1, 32]: 5 | Enrichment_score [1, 33]: 1.2104 | ListHits [1, 33]: 5 | Enrichment_score ([1]; KEGG ko04924 Renin secretion): 2.282 | ListHits ([1]; KEGG ko04924 Renin secretion): 3 | Enrichment_score [1, 34]: 11.3617 | ListHits [1, 34]: 4 | Enrichment_score [1, 35]: 3.551 | ListHits [1, 35]: 1 | Enrichment_score ([1]; KEGG ko04976 Bile secretion): 2.324 | ListHits ([1]; KEGG ko04976 Bile secretion): 3 | Expression levels of growth-related genes in tobacco roots ([1]; RNA-seq, GO growth, vs DMSO): differentially elevated the expression levels of most growth‐related genes | Expression levels of RBOHs, MYB44, TGA2, WRKY19, EFR, FLS2, PR1 and PDF1.4 in tobacco roots ([1]; RNA-seq, vs DMSO): significantly increased the expression levels | Antioxidant genes (GO antioxidant activity) up-regulated [1, 36]: 60 of 61 | Immune genes (GO immune system process) up-regulated [1, 36]: 70 of 82 | Environmental adaptation-related genes (KEGG) up-regulated ([1]; tobacco roots, coregulated genes, vs DMSO): 22 of 29 | Inhibition rate of ANJEA-CD kinase activity [2]: lower than 55% | Growth of roots and shoots of Arabidopsis Col-0 seedlings [3]: significantly promoted root and shoot growth | Control of tobacco bacterial wilt [4]: alleviated tobacco bacterial wilt; also recorded: alleviated soil‐borne diseases
